Our source for the melting point values is article PMC9661477, “New Dual P-Glycoprotein (P-gp) and Human Carbonic Anhydrase XII (hCA XII) Inhibitors as Multidrug Resistance (MDR) Reversers in Cancer Cells” (Journal of Medicinal Chemistry, 2022).

Each structure is given as a SMILES string. Counter-ions that a name gives are not always drawn.

Usually melting point stands for the temperature, or range, at which the solid turns liquid. Regarding `COc1cc(/C=C/C(=O)OCCCCCCCN(CCCOC(=O)c2cc(OC)c(OC)c(OC)c2)CCCOc2ccc3ccc(=O)oc3c2)cc(OC)c1OC` (as salt: hydrochloride) [Compound 20, (E)-3-((3-((2-Oxo-2H-chromen-7-yl)oxy)propyl)(7-((3-(3,4,5-trimethoxyphenyl)acryloyl)oxy)heptyl)amino)propyl 3,4,5-Trimethoxybenzoate], the melting point lay within 84 to 87 °C.
As to `COc1cc(/C=C/C(=O)OCCCCCCCN(CCCOC(=O)c2c3ccccc3cc3ccccc23)CCCOc2ccc3ccc(=O)oc3c2)cc(OC)c1OC` (as salt: hydrochloride) [Compound 21, (E)-3-((3-((2-Oxo-2H-chromen-7-yl)oxy)propyl)(7-((3-(3,4,5-trimethoxyphenyl)acryloyl)oxy)heptyl)amino)propyl Anthracene-9-carboxylate], the melting point lay in the range of 100 to 102 °C.
Regarding `COc1cc(/C=C/C(=O)OCCCN(CCCCCCCOC(=O)c2cc(OC)c(OC)c(OC)c2)CCCOc2ccc3ccc(=O)oc3c2)cc(OC)c1OC` (as salt: hydrochloride) [Compound 22, (E)-7-((3-((2-Oxo-2H-chromen-7-yl)oxy)propyl)(3-((3-(3,4,5-trimethoxyphenyl)acryloyl)oxy)propyl)amino)heptyl 3,4,5-Trimethoxybenzoate], the melting point lay within 73 to 76 °C.
The value for `COc1cc(C(=O)OCCCCCCCN(CCCOC(=O)c2cc(OC)c(OC)c(OC)c2)CCCOc2ccc3ccc(=O)oc3c2)cc(OC)c1OC` (as salt: hydrochloride) [Compound 23, 7-((3-((2-Oxo-2H-chromen-7-yl)oxy)propyl)(3-((3,4,5-trimethoxybenzoyl)oxy)propyl)amino)heptyl 3,4,5-Trimethoxybenzoate] was 74 to 77 °C; that for `COc1cc(C(=O)OCCCCCCCN(CCCOC(=O)c2c3ccccc3cc3ccccc23)CCCOc2ccc3ccc(=O)oc3c2)cc(OC)c1OC` (as salt: hydrochloride) [Compound 24, 3-((3-((2-Oxo-2H-chromen-7-yl)oxy)propyl)(7-((3,4,5-trimethoxybenzoyl)oxy)heptyl)amino)propyl Anthracene-9-carboxylate] was 75 to 77 °C; that for `COc1cc(/C=C/C(=O)OCCCN(CCCCCCCOC(=O)c2c3ccccc3cc3ccccc23)CCCOc2ccc3ccc(=O)oc3c2)cc(OC)c1OC` (as salt: hydrochloride) [Compound 25, (E)-7-((3-((2-Oxo-2H-chromen-7-yl)oxy)propyl)(3-((3-(3,4,5-trimethoxyphenyl)acryloyl)oxy)propyl)amino)heptyl Anthracene-9-carboxylate] was 107 to 110 °C.
The value for `COc1cc(C(=O)OCCCN(CCCCCCCOC(=O)c2c3ccccc3cc3ccccc23)CCCOc2ccc3ccc(=O)oc3c2)cc(OC)c1OC` (as salt: hydrochloride) [Compound 26, 7-((3-((2-Oxo-2H-chromen-7-yl)oxy)propyl)(3-((3,4,5-trimethoxybenzoyl)oxy)propyl)amino)heptyl Anthracene-9-carboxylate] was 97 to 99 °C; that for `O=C(OCCCCCCCN(CCCOC(=O)c1c2ccccc2cc2ccccc12)CCCOc1ccc2ccc(=O)oc2c1)c1c2ccccc2cc2ccccc12` (as salt: hydrochloride) [Compound 27, 3-((7-((Anthracene-9-carbonyl)oxy)heptyl)(3-((2-oxo-2H-chromen-7-yl)oxy)propyl)amino)propyl Anthracene-9-carboxylate] was 117 to 119 °C.
